In PubChem BioAssay (NCI):
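Results reflect a 48-hour exposure of cells in 96-well plates to compound at five concentrations. GI50 marks 50% less growth. TGI: concentration producing complete growth inhibition.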

Key:
Assay in all cases: DTP human tumour cell line panel, 48 h
BT-549 breast = system: BT-549 breast
HS 578T breast = system: HS 578T breast
MCF7 breast = system: MCF7 breast
MDA-MB-435 = system: MDA-MB-435
PC-3 prostate = system: PC-3 prostate
DMS 114 small cell lung = system: DMS 114 small cell lung
KM20L2 colon = system: KM20L2 colon
XF 498 CNS = system: XF 498 CNS

Row | SMILES | GI50 (BT-549 breast) [µM] | TGI (BT-549 breast) [µM] | GI50 (HS 578T breast) [µM] | TGI (HS 578T breast) [µM] | GI50 (MCF7 breast) [µM] | TGI (MCF7 breast) [µM] | GI50 (MDA-MB-435) [µM] | TGI (MDA-MB-435) [µM] | GI50 (PC-3 prostate) [µM] | TGI (PC-3 prostate) [µM] | TGI (DMS 114 small cell lung) [µM] | TGI (KM20L2 colon) [µM] | TGI (XF 498 CNS) [µM] | GI50 (KM20L2 colon) [µM]
1 | N#C[C@@H]1C(n2ccc(N)nc2=O)O[C@H](CO)[C@H]1O (stereo partly drawn) | > 100 | > 100 | > 100 | > 100 | 0.993 | > 100 | > 73 | > 100 | 97.4 | > 100 |  |  |  | 
2 | C1=CC=C2NCCOCCNC3=CC=CC=CC3=NCCOCCN=C2C=C1 |  |  |  |  |  |  |  |  |  |  | > 100 | 79.3 |  | 
3 | CC(C)[C@H]1C(=O)N[C@@H](CCCN=C(N)N)C(=O)NCC(=O)N[C@@H](CC(=O)O)C(=O)N[C@H](Cc2ccccc2)C(=O)N1C | 1.6 | 3.13 | 19.8 | > 100 | 1.4 | 3.32 | 0.289 | 0.895 | > 100 | > 100 |  |  |  | 
4 | COc1ccc(Cl)cc1Nc1nc(C(F)(F)F)ccc1C(=O)N/N=C/c1cc(OC)c(OC)c(OC)c1 | 1.2 | 3.68 | 1.94 | 4.67 | 1.52 | 7.46 | 2.41 | 7.72 | 2.4 | 17.4 |  |  |  | 
5 | CN1C(=O)C(Cl)(C(Cl)(Cl)S(=O)(=O)O)C(=O)c2ccccc21 (stereo not drawn) |  |  |  |  |  |  |  |  |  |  |  | 40.6 |  | 
6 | CN(C)C(=O)O[C@@H]1CN[C@@H](C#Cc2cc3ncnc(Nc4ccc(OCc5cccc(F)c5)c(Cl)c4)c3s2)C1 | 7.93 | > 21.4 | > 25 | > 25 | > 25 | > 25 | > 25 | > 25 | 8.53 | > 25 |  |  |  | 
7 | NC(=O)c1ccc(C2C3=C(CCCC3=O)OC3=C2C(=O)c2ccccc2C3=O)cc1 (stereo not drawn) | 0.642 | 2.03 | 1.13 | 5.49 | 0.233 | 0.824 | 0.179 | 0.339 | 0.285 | 1.86 |  |  |  | 
8 | O=C1NC2(CN3CCC2CC3)C(=O)N1CN(Cc1ccccc1)c1ccccc1 (stereo not drawn) |  | > 100 |  | > 100 |  | > 100 |  | > 100 |  | > 100 |  |  |  | 
9 | c1nnc(NCNc2nncs2)s1 |  | > 100 |  | > 100 |  | > 100 |  | > 100 |  | > 100 |  |  |  | 
10 | Cc1cc(N/N=C/c2nc(-c3ccc(Cl)cc3)oc2C)c2cc(Cl)ccc2n1 | 8.61 | 21.1 | 3.42 | 14.7 | 1.35 | 2.97 | 1.68 | 3.44 | 2.1 | 4.81 |  |  |  | 
11 | O=C1CCCN1CC#CCN1CCCC1 | > 100 | > 100 | > 100 | > 100 | > 100 | > 100 | > 100 | > 100 | > 100 | > 100 |  |  |  | 
12 | Cn1c(=O)c2c(ncn2CN2CCN(Cn3cnc4c3c(=O)n(C)c(=O)n4C)CC2)n(C)c1=O |  | > 100 |  | > 100 |  | 35.7 |  | > 100 |  | > 100 |  |  |  | 
13 | CCOC(=O)c1cc(/C=C/C(C)=C/C(=O)OC)n(C)c1C |  |  |  |  |  |  |  |  |  |  |  | > 100 | > 100 | 
14 | CN=C1SC(=Nc2ccc(N(C)C)cc2)N1C |  |  |  |  |  |  |  |  |  |  | 60.3 |  |  | 
15 | CCOc1ccccc1NC(=O)CCc1nc(=S)[nH][nH]1 |  |  |  |  |  |  |  |  |  |  | > 100 |  |  | 
16 | O=C(O)CSc1ncccc1[N+](=O)[O-] |  | > 100 |  | > 100 |  | > 100 |  | > 100 |  | > 100 |  |  |  | 

Row | SMILES | GI50 (BT-549 breast) [µM] | TGI (BT-549 breast) [µM] | GI50 (HS 578T breast) [µM] | TGI (HS 578T breast) [µM] | GI50 (MCF7 breast) [µM] | TGI (MCF7 breast) [µM] | GI50 (MDA-MB-435) [µM] | TGI (MDA-MB-435) [µM] | GI50 (PC-3 prostate) [µM] | TGI (PC-3 prostate) [µM] | TGI (DMS 114 small cell lung) [µM] | TGI (KM20L2 colon) [µM] | TGI (XF 498 CNS) [µM] | GI50 (KM20L2 colon) [µM]
17 | COc1ccc(CN2c3ccccc3CCc3ccccc32)cc1F | 0.776 | 41.2 | 0.487 | > 100 | 0.352 | > 100 |  |  | 0.489 | > 100 |  |  |  | 
18 | COC(=O)c1c(-c2ccccc2)sc(-c2cccc3ccccc23)c1C(=O)OC |  |  |  |  |  |  |  |  |  |  |  | > 100 |  | 
19 | O=C([CH-]C(=O)C(F)(F)F)c1ccccc1.O=C([CH-]C(=O)C(F)(F)F)c1ccccc1.O=C([CH-]C(=O)C(F)(F)F)c1ccccc1.O=C([CH-]C(=O)C(F)(F)F)c1ccccc1.[Eu+3].c1ccncc1 |  |  |  |  |  |  |  |  |  |  |  | > 100 |  | 26.7
20 | Fc1cccc(Cl)c1/C=N\N=C1c2ccccc2-c2ccccc21 |  | > 100 |  | > 100 |  | > 100 |  | > 100 |  | > 100 |  |  |  | 
21 | O=C1c2ccccc2-n2c1nc1ccccc1c2=O |  | 45.4 |  | 45.2 |  | 25.2 |  | 3.44 |  | > 60.1 |  |  |  | 
22 | C/C(=N\NC(N)=S)c1nc2ccc(Cl)cc2[nH]1 | 3.57 | 14.3 | 12.2 | > 50 | 1.64 | > 50 | 2.95 | 24.6 | 4.05 | 48.2 |  |  |  | 
23 | Cc1nc(C(N)=S)sc1C(=O)C/C(=N/N)C(=O)Nc1cccc(Cl)c1C |  | > 100 |  | > 100 |  | > 100 |  | > 100 |  | > 100 |  |  |  | 
24 | CC1CCN(CC(=O)N2c3ccccc3Sc3cc4ccccc4cc32)CC1 |  | > 100 |  | > 100 |  | > 100 |  | > 100 |  | > 100 |  |  |  | 
25 | CCOC(=O)CC1NC(=O)CS1 (stereo not drawn) |  |  |  |  |  |  |  |  |  |  | 57.8 | > 100 |  | 
26 | O=c1[nH]c(=O)n(C2OC3COC2C3O)cc1F (stereo not drawn) |  |  |  |  |  |  |  |  |  |  |  | > 100 | > 100 | 
27 | CCN(CCNc1ccc(C)c2sc3ccccc3c(=O)c12)CC(C)(C)O | 15.3 | 36.6 | 11.5 | 29.2 | 11.1 | 26.8 | 6.51 | 28.6 | 12.9 | 53.5 |  |  |  | 
28 | BrC1(Br)C2/C=C\CCCCC21 (stereo not drawn) |  |  |  |  |  |  |  |  |  |  |  | > 100 | > 100 | 
29 | COC1CC(OC(=O)c2ccccc2)C(OC(=O)c2ccccc2)C(C)O1 (stereo not drawn) |  |  |  | > 100 |  | > 100 |  | > 100 |  | > 100 |  |  |  | 
30 | COc1cc(S(C)(=O)=O)ccc1Nc1nc2ccc(-c3ccc(NC(=O)[C@H](C)c4ccc(F)cc4)cc3)cn2n1 | > 63.8 | > 100 | > 63.4 | > 100 | 0.749 | > 100 | > 100 | > 100 | 4.29 | > 100 |  |  |  | 
31 | CCN1CSC(=S)N(CC)C1 |  | > 100 |  | > 100 |  | > 100 |  | > 100 |  | > 100 |  |  |  | 
